Results: US12324927B2, “Methods and systems for photodynamic therapy calculations” (THE TRUSTEES OF THE UNIVERSITY OF PENNSYLVANIA, priority 2018, dated 2025)
Several values for one entry are separate records, joined by “and”; a condition that tells them apart may be missing. Equal entries are not always repeated.

Test system: radiation-induced fibrosarcoma (RIF) tumors
Assay: Photofrin-mediated PDT of RIF tumors: explicit dosimetry and tumor regrowth (cure index)
Assay type: in vivo, mice
Conditions: for Photofrin post: in tumor after PDT; for Photofrin post / Photofrin pre / [ROS]rx, mea / [ROS]rxcal / CI (cure index, 1−k/kctr): per mouse; for Photofrin pre: in tumor before PDT, 5 mg/kg i.v., 24 h, 5 mg/kg; for [ROS]rx, mea / [ROS]rxcal: 3 mm; for [ROS]rx, mea: measured [^3O2](t); for [ROS]rxcal: model-calculated [^3O2]; for CI (cure index, 1−k/kctr): tumor growth up to 14 days
Description: Radiation-induced fibrosarcomas (RIF) cells were cultured and injected in the right shoulder regions of 6-8 weeks old female C3H mice (NCI-Frederick, Frederick, MD). 30 μl were injected at a concentration of 1×10^7 cells/ml, as described previously.^8-11 Animals were under the care of the University of Pennsylvania Laboratory Animal Resources. All studies were approved by the University of Pennsylvania Institutional Animal Care and Use Committee. The fur of the treatment region was clipped prior to cell inoculation, and the treatment area was depilated with Nair (Church & Dwight Co., Inc., Ewing, NJ) at least 24 hours prior to measurements and treatment. Tumors were treated when they were 3˜5 mm in diameter. Mice were given a chlorophyll-free (alfalfa-free) rodent diet (Harlan laboratories Inc., Indianapolis, IN) at least 10 days prior to treatment to eliminate the fluorescence signal from chlorophyll-breakdown products, which have a similar range to the photosensitizer spectra obtained in this study. The photosensitizer fluorescence was used to determine the in vivo concentrations in this study, using methods described previously.^7-9
Treatment delivery was done using an optical fiber with a microlens attachment coupled to a diode laser with the appropriate wavelength for each photosensitizer. A 630 nm laser (Biolitec, Inc., East Longmeadow, MA, USA) was used for Photofrin after a 18˜24 hours drug-light interval. The in-air fluence rate (ϕair) is defined as the calculated irradiance determined by the laser power divided by the treatment area (1 cm diameter spot size). The in-air fluence was calculated by multiplying the in-air fluence rate by the treatment time. RIF tumor-bearing mice with no photosensitizer and no light excitation were used as controls (n=5).
Photofrin (Pinnacle Biologics, Chicago, Illinois) at a dosage of 5 mg/kg was injected through the mouse tail vein as described previously.^12,13 At a 24-h drug-light interval, superficial irradiation of the tumor was performed with a 630-nm laser (Biolitec AG., A-1030, Vienna). A microlens fiber was coupled to the laser to irradiate the tumor uniformly. Animals were assigned to four light dose groups, and each group was comprised of 2 to 3 subgroups with different ϕ. There were a total of 5 treatment groups: 50 J/cm^2 at 150 mW/cm^2, 250 J/cm^2 at 75 mW/cm^2, 135 J/cm^2 at 75 mW/cm^2, 75 J/cm^2 at 75 mW/cm^2, and 100 J/cm^2 at 150 mW/cm^2. Tumor-bearing mice that received neither light irradiation nor Photofrin were used as controls.
Following the drug-light interval of 18˜24 hours, measurements of light fluence rate, photosensitizer concentration and [O2] were performed. Photofrin fluorescence spectra was obtained using a custom-made multi-fiber contact probe before and after PDT.^14 The probe is connected to a 405 nm laser (Power Technology Inc., Little Rock, AR, USA) for the fluorescence excitation of Photofrin and a multichannel CCD spectrograph (InSpectrum, Princeton Instruments, Trenton, NJ, USA) for the collection of the spectra. The in vivo photosensitizer concentration was obtained by comparing the in vivo Photofrin spectra with those of phantoms with known photosensitizer concentrations. The attenuation of the fluorescence signal due to the light absorption and scattering by tissues was corrected by applying an empirical correction factor described elsewhere. The accuracy of in vivo measurements was validated by ex vivo measurements in separate mice.^15.16
The in vivo tissue oxygen partial pressure pO2 was measured during PDT treatment using a phosphorescence-based ^3O2 probe (OxyLite Pro, Oxford Optronix, Oxford, United Kingdom). A bare-fiber-type probe (NX-BF/O/E, Oxford Optronix, Oxford, United Kingdom) was placed inside the tumor at a 3 mm depth from the treatment surface. […]

Photofrin
Photofrin post (75.00 mW/cm2 for 1500.00 s): 2.80 µM and 3.70 µM and 3.01 µM
Photofrin post (75.00 mW/cm2 for 1800.00 s): 4.90 µM and 3.35 µM and 3.00 µM and 3.50 µM
Photofrin post (75.00 mW/cm2 for 3333.00 s): 3.02 µM and 2.44 µM and 2.48 µM and 2.20 µM
Photofrin post (150.00 mW/cm2 for 333.00 s): 3.07 µM and 1.19 µM and 2.80 µM and 2.30 µM
Photofrin post (150.00 mW/cm2 for 666.00 s): 2.50 µM and 3.54 µM and 4.88 µM and 3.49 µM
Photofrin pre (75.00 mW/cm2 for 1500.00 s): 6.50 µM and 6.70 µM and 6.00 µM
Photofrin pre (75.00 mW/cm2 for 1800.00 s): 6.90 µM and 6.80 µM and 5.20 µM and 5.67 µM
Photofrin pre (75.00 mW/cm2 for 3333.00 s): 6.47 µM and 4.20 µM and 4.54 µM and 4.50 µM
Photofrin pre (150.00 mW/cm2 for 333.00 s): 6.80 µM and 3.07 µM and 5.84 µM and 5.10 µM
Photofrin pre (150.00 mW/cm2 for 666.00 s): 6.40 µM and 7.20 µM and 7.84 µM and 6.79 µM
[ROS]rx, mea (75.00 mW/cm2 for 1500.00 s): 0.82 mM and 0.73 mM and 0.65 mM
[ROS]rx, mea (75.00 mW/cm2 for 1800.00 s): 1.13 mM and 0.96 mM and 1.00 mM and 1.10 mM
[ROS]rx, mea (75.00 mW/cm2 for 3333.00 s): 1.40 mM and 1.41 mM and 1.39 mM and 1.20 mM
[ROS]rx, mea (150.00 mW/cm2 for 333.00 s): 0.27 mM (2×) and 0.21 mM and 0.38 mM
[ROS]rx, mea (150.00 mW/cm2 for 666.00 s): 0.77 mM and 0.79 mM and 0.88 mM and 0.78 mM
[ROS]rxcal (75.00 mW/cm2 for 1500.00 s): 0.89 mM and 0.93 mM and 0.87 mM
[ROS]rxcal (75.00 mW/cm2 for 1800.00 s): 1.39 mM and 1.24 mM and 1.07 mM and 1.09 mM
[ROS]rxcal (75.00 mW/cm2 for 3333.00 s): 2.33 mM and 1.73 mM and 1.89 mM and 1.87 mM
[ROS]rxcal (150.00 mW/cm2 for 333.00 s): 0.29 mM and 0.235 mM and 0.39 mM and 0.32 mM
[ROS]rxcal (150.00 mW/cm2 for 666.00 s): 0.69 mM and 0.81 mM (2×) and 0.8 mM
CI (cure index, 1−k/kctr) (75.00 mW/cm2 for 1500.00 s): 0.20 and 0.22 and 0.13
CI (cure index, 1−k/kctr) (75.00 mW/cm2 for 1800.00 s): 1.00 and 0.56 and 0.64 and 0.82
CI (cure index, 1−k/kctr) (75.00 mW/cm2 for 3333.00 s): 1.00
CI (cure index, 1−k/kctr) (150.00 mW/cm2 for 333.00 s): 0.03 and 0.00 and 0.01 and 0.06
CI (cure index, 1−k/kctr) (150.00 mW/cm2 for 666.00 s): 0.15 and 0.25 and 0.42 and 0.27
PDT dose threshold (this study): 439 mM J/cm^2
